Test results as given in US5756423A, “Method of controlling plants by inhibition of farnesyl pyrophosphate synthase” (Zeneca Limited, priority 1997, dated 1998).
Read-outs that look alike come from different tables or passages of the source.

What was measured:
[1] = test system: barnyard grass (Enchinochloa crusgalli) (ECHCG); assay: post-emergent herbicidal test, barnyard grass; format: in vivo; conditions: Echinochloa crus-galli, post-emergence, post-emergent, 17-21 days after application, read-out: ECHCG percent control; for pest or weed control at 1000 g/ha: 1.0 kg/ha (*); for pest or weed control at 4000 g/ha: 4.0 kg/ha
Method in brief: (§1)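 Seedlings grown in sandy loam in a greenhouse (29/21 °C day/night, 14 h light) were sprayed post-emergence at 1 or 4 kg/ha in water with 0.5% Tween 20; grasses at 3–4 leaf, broadleaves at 1–2 leaf. Percent control versus untreated flats (0–100%) was rated 17–21 days later.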

[2] = test system: wild oat (Avena fatua) (AVEFA); assay: post-emergent herbicidal test, wild oat; format: in vivo; conditions: Avena fatua, post-emergence, post-emergent, 17-21 days after application, read-out: AVEFA percent control; for pest or weed control at 1000 g/ha: 1.0 kg/ha (*); for pest or weed control at 4000 g/ha: 4.0 kg/ha
Method in brief: as §1

[3] = test system: green foxtail (Setaria viridis) (SETVI); assay: post-emergent herbicidal test, green foxtail; format: in vivo; conditions: post-emergent, 17-21 days after application; for pest or weed control at 1000 g/ha / pest or weed control at 4000 g/ha: Setaria viridis, post-emergence, read-out: SETVI percent control; for pest or weed control at 4000 g/ha: 4.0 kg/ha
Method in brief: as §1

[4] = test system: wild mustard (Brassica kaber), also known as Sinapis arvensis (SINAR); assay: post-emergent herbicidal test, wild mustard; format: in vivo; conditions: post-emergent, 17-21 days after application; for pest or weed control at 1000 g/ha / pest or weed control at 4000 g/ha: Brassica, post-emergence, read-out: SINAR percent control; for pest or weed control at 4000 g/ha: 4.0 kg/ha
Method in brief: as §1

[5] = test system: morningglory (Ipomoea spp.) (IPOSS); assay: post-emergent herbicidal test, morningglory; format: in vivo; conditions: Ipomoea, post-emergence, post-emergent, 17-21 days after application, read-out: IPOSS percent control; for pest or weed control at 1000 g/ha: 1.0 kg/ha (*); for pest or weed control at 4000 g/ha: 4.0 kg/ha
Method in brief: as §1

[6] = test system: yellow nutsedge (Cyperus esculentus) (CYPES); assay: post-emergent herbicidal test, yellow nutsedge; format: in vivo; conditions: post-emergent, 17-21 days after application; for pest or weed control at 1000 g/ha / pest or weed control at 4000 g/ha: Cyperus, post-emergence, read-out: CYPES percent control; for pest or weed control at 4000 g/ha: 4.0 kg/ha
Method in brief: as §1

[7] = test system: velvetleaf (Abutilon theophrasti) (ABUTH); assay: post-emergent herbicidal test, velvetleaf; format: in vivo; conditions: post-emergent, 17-21 days after application; for pest or weed control at 1000 g/ha / pest or weed control at 4000 g/ha: Abutilon theophrasti, post-emergence, read-out: ABUTH percent control; for pest or weed control at 4000 g/ha: 4.0 kg/ha
Method in brief: as §1

[8] = test system: farnesyl pyrophosphate synthase in daffodil chromoplasts; assay: inhibition of farnesyl pyrophosphate synthase in daffodil chromoplasts (14C-isopentenyl pyrophosphate incorporation); format: biochemical, Narcissus pseudonarcissus; conditions: unit inferred, IC50 values in nM, read-out: IC50
Method in brief: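 Daffodil chromoplasts in pH 7.7 sucrose/MgCl2/HEPES buffer with cysteine, NaF and BSA, started with ~3 micromolar 14C-isopentenyl pyrophosphate, 30 min at 30° C. Butanol-extractable radioactivity counted by scintillation; % residual activity calculated against zero-time and end-point no-inhibitor controls.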

SMILES	IC50 ([8]; Table I) [nM]	IC50 ([8]; Table II) [nM]	pest or weed control at 1000 g/ha [1] [%]	pest or weed control at 1000 g/ha [2] [%]	pest or weed control at 1000 g/ha ([3]; 1.0 kg/ha (*)) [%]	pest or weed control at 1000 g/ha ([4]; 1.0 kg/ha (*)) [%]	pest or weed control at 1000 g/ha [5] [%]	pest or weed control at 1000 g/ha ([6]; 1.0 kg/ha (*)) [%]	pest or weed control at 1000 g/ha ([7]; 1.0 kg/ha (*)) [%]	pest or weed control at 4000 g/ha [1] [%]	pest or weed control at 4000 g/ha [2] [%]	pest or weed control at 4000 g/ha [3] [%]	pest or weed control at 4000 g/ha [4] [%]	pest or weed control at 4000 g/ha [5] [%]	pest or weed control at 4000 g/ha [6] [%]	pest or weed control at 4000 g/ha [7] [%]	SETVI percent control ([3]; 1.0 kg/ha (*)) [%]	SINAR percent control ([4]; 1.0 kg/ha (*)) [%]	CYPES percent control ([6]; 1.0 kg/ha (*)) [%]	ABUTH percent control ([7]; 1.0 kg/ha (*)) [%]
O=P(O)(O)C(CN[C@@H]1C[C@H]1c1ccccc1)P(=O)(O)O (relative stereo) [Compound 63]	2090	2090	5	0	10	10	5	0	20											
CCOCCNCC(P(=O)(O)O)P(=O)(O)O [Compound 22]	1160	1660	15	0	20	40	5	0	5											
CC(NCC(P(=O)(O)O)P(=O)(O)O)c1ccc(F)cc1 (stereo not drawn) [Compound 44]	2510	2510	100	90	100	90	10	60	60											
CCCCNCC(P(=O)(O)O)P(=O)(O)O [Compound 14]	347	347	90	70	95	85	10	15	20											
CC1CCCN(CC(P(=O)(O)O)P(=O)(O)O)C1 (stereo not drawn) [Compound 21]	385	385	30	50	50	30	10	5	0											
CC(NCC(P(=O)(O)O)P(=O)(O)O)c1ccccc1 (stereo not drawn) [Compound 26]	1430	1430	80	80			10										60	40	5	20
Cc1cnn(CC(P(=O)(O)O)P(=O)(O)O)c1 [Compound 60]	1410	1410	30	10	30	20	5	0	10											

The next compounds have a lower IC50 ([8]; Table I) than those just listed; values first:

IC50 ([8]; Table I) [nM]	IC50 ([8]; Table II) [nM]	SMILES	pest or weed control at 1000 g/ha [1] [%]	pest or weed control at 1000 g/ha [2] [%]	pest or weed control at 1000 g/ha ([3]; 1.0 kg/ha (*)) [%]	pest or weed control at 1000 g/ha ([4]; 1.0 kg/ha (*)) [%]	pest or weed control at 1000 g/ha [5] [%]	pest or weed control at 1000 g/ha ([6]; 1.0 kg/ha (*)) [%]	pest or weed control at 1000 g/ha ([7]; 1.0 kg/ha (*)) [%]	pest or weed control at 4000 g/ha [1] [%]	pest or weed control at 4000 g/ha [2] [%]	pest or weed control at 4000 g/ha [3] [%]	pest or weed control at 4000 g/ha [4] [%]	pest or weed control at 4000 g/ha [5] [%]	pest or weed control at 4000 g/ha [6] [%]	pest or weed control at 4000 g/ha [7] [%]	SETVI percent control ([3]; 1.0 kg/ha (*)) [%]	SINAR percent control ([4]; 1.0 kg/ha (*)) [%]	CYPES percent control ([6]; 1.0 kg/ha (*)) [%]	ABUTH percent control ([7]; 1.0 kg/ha (*)) [%]
60	60	C=CCN(C)CC(P(=O)(O)O)P(=O)(O)O [Compound 41]	95	100	95	100	85	60	85											
178	178	CC(C)N(C)CC(P(=O)(O)O)P(=O)(O)O [Compound 33]	100	100	95	100	65	10	50											
32	32	O=P(O)(O)C(CN1CCCCC1)P(=O)(O)O [Compound 1]								100	100	100	100	100	20	70				
266	266	CC1CCN(CC(P(=O)(O)O)P(=O)(O)O)CC1 [Compound 30]	90	90	95	100	30	5	5											
83	83	CC1CCCCN1CC(P(=O)(O)O)P(=O)(O)O (stereo not drawn) [Compound 10]								85	100	85	100	90	5	50				
